The target of assay [1] is T1, Amyloid beta 40 (Aβ40) aggregates (Homo sapiens, UniProt P05067).
T1 construct: gene APP; synthetic amyloid-β peptide (1-40), aggregated
The assay is described as follows: FRET with CRANAD-5 on Aβ[…] aggregates; apparent Kd printed in Results. The format is binding. The settings on record: cited from earlier work.

Assay [2] deals with T1, Amyloid beta 40 (Aβ40) aggregates. The assay can be described thus: fluorescence titration of Aβ[…] aggregates, one-site binding fit.

For two molecules, Kd results are on record in article PMC3084834, “Non-Conjugated Small Molecule FRET for Differentiating Monomers from Higher Molecular Weight Amyloid Beta Species” (PLoS ONE, 2011).

Structures are written as SMILES.

T1 sequence (P05067 672-711 limits assumed): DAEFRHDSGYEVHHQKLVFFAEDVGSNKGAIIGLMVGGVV

On to `CN(C)c1ccc(/C=C/C2=CC(/C=C/c3ccc(N(C)C)cc3)=[O+][B-](F)(F)O2)cc1` [CRANAD-2], for which the Kd in assay [1] was 38 nM. Turning to `CN(C)c1ccc(/C=C/C(=O)/C=C(O)/C=C/c2ccc(N(C)C)cc2)cc1` [CRANAD-5], the Kd in assay [2] is 10.5 ± 2.5 nM.
